Here are results for 22 molecules from patent US8877944B2, “3-oxo-2,3-dihydro-1H-isoindole-4-carboxamides as PARP inhibitors” (Nerviano Medical Sciences S.R.L., priority 2009, dated 2014).

Where two headings read alike, the source gives them in different places.

Data set [1] deals with PARP-1 FL (Homo sapiens (Human), UniProt P09874). As to the kind of experiment: Fluorescence polarization probe displacement assay, PARP-1. The conditions noted are these: for DC50: half maximal displacement concentration. The data set is classed as binding. On the technique in general: Fluorescence polarisation rises when a labelled molecule tumbles more slowly, as on binding a larger partner.
Protocol: (§1) Affinity evaluation of the tested compounds and their selectivity with respect to the different PARP isoforms of interest was assessed in a displacement assay.
(§2) The polarization signal can be measured, e.g., by a plate reader such as the Saphire2 (Tecan). The displacement ability of the test compound is in correlation with the compound affinity for the NAD pocket of the enzyme.
(§3) The assay performances were then evaluated (Z′ factor) as well as the displacement of the probe by its scaffold and known commercially available PARP inhibitors. In all of the experiments, the polarization signal was measured using a Saphire2 plate reader (Tecan). Data analysis was performed using Dynafit software. In particular, titration data were fitted to the following equilibria: Enzyme+probe <==> Complex Enzyme-probe, while displacement data were fitted to the following equilibria: Enzyme+probe <==> Complex Enzyme-probe, Enzyme+Compound <==> Complex Enzyme-Compound, whereby binding of probe and compound on the enzyme are mutually exclusive (pure competitive mechanism). Displacement data were also fitted using Excell spreadsheet (Microsoft Inc. Seattle, USA) to a four parameter logistic model (4PL), or Hill-Slope model to calculate DC50s where the DC50 value represents the compound concentration at which the polarization signal is diminished by 50% compared to untreated controls.
(§4) KD values, are the average of three independent experiments.

Data set [2] addresses PARP-2 FL (Homo sapiens (Human), UniProt Q9UGN5). As to the kind of experiment: Fluorescence polarization probe displacement assay, PARP-2. The class given is binding.
Protocol: as §1, §2, §3, §4
Data set [3] addresses PARP-3 FL (Homo sapiens (Human), UniProt Q9Y6F1). The experiment in a line: Fluorescence polarization probe displacement assay, PARP-3. The class given is binding. The conditions noted are these: half maximal displacement concentration.
Protocol: as §1, §2, §3, §4
The nature of data set [4]: Pharmacokinetics and oral bioavailability in the mouse. The conditions noted are these: for C-max (oral): 10 mg/kg single oral dose, mean value; for F on AUC / Vd / clearance / AUC / half-life: 10 mg/kg; for F on AUC: oral vs IV dose-normalized AUC; for Vd / clearance / AUC / half-life: male, Balb Nu/Nu, plasma; for Vd / clearance: iv; for AUC / half-life: po.
Protocol: The compounds were formulated in 10% tween 80/dextrose for intravenous bolus administration while oral administrations were performed using the compounds formulated in 0.5% methylcellulose. A single administration at the dose of 10 mg/kg was given and three male animals for each route were used. […] Plasma samples were prepared by plasma proteins precipitation adding 200 μL of methanol to 10 μL of plasma in a 96 well plate. […] The supernatant was considered as final extract and injected onto the LC-MS-MS system (HPLC system: Hewlett Packard 1100 series using Atlantis HILIC Silica 50*2.1 mm 5.0 μm analytical column; MS instrument: Perkin Elmer SCIEX API 2000 and ionization performed with Turbo Ion Spray in positive ion mode). Lower limit of quantification is 5.0 ng/mL, upper limit of quantification is 10000 ng/mL. […] Non-compartmental method (linear trapezoidal rule and linear regression analysis of natural log-transformed plasma concentrations vs. time data) was used. After intravenous dosing, C0 was set equal to C0.083 Absolute bioavailability (F) was calculated from the ratio of average oral to IV (intravenous) dose-normalized plasma AUC (area under curve) values.
The subject of data set [5] is PAR formation in HeLa cells. The experiment in a line: Cellular PAR assay: inhibition of hydrogen peroxide induced PAR formation. The conditions noted are these: Homo sapiens, read-out: PAR assay IC50.
Protocol: Compounds potencies were evaluated by measuring the inhibition of poly (ADP-ribose) (PAR) chains formation as a marker for PARP-1 inhibition.
Cellular activity of PARP-1 inhibitors was assessed by measuring the inhibition of the hydrogen peroxide induced PAR formation in HeLa cells (ECACC). Cellular PAR levels were measured by immunocytochemistry, and quantified using an ArrayScan vTi instrument (Cellomics Thermo Scientific).
Test compounds were then added at the required concentration for 30′. […] Concentration curves were prepared in MEM/10% FCS from compound stocks in DMSO, and final DMSO concentration was 0.002% (v/v). Duplicate wells for each concentration point were prepared with a typical highest compound concentration of 20 μM and serial dilution 1:3. […] Non-specific binding sites were blocked by incubating wells for 30 min in PBS containing 5% (w/v) FBS 0.05% tween20. […] After washing further 3 times in PBS, cellular PAR immunoreactivity was assessed using the ArrayScan vTi instrument, with a Zeiss 10×0.5 N.A. objective, and applying the Cytotoxicity.V3 algorithm (Cellomics/Thermo Fisher) with a XF100 filter. At least 10 fields, corresponding to at least 900 cells, were read for each well.
The following formula is used: IC50=Bottom+(Top-Bottom)/(1+10^((LogEC50−X))); X is the logarithm of concentration. IC50 is the response; IC50 starts at Bottom and goes to Top with a sigmoid shape.
The test system of data set [6] is Capan-1 human pancreatic cancer tumors. The experiment in a line: In vivo efficacy, single agent, Capan-1 BRCA-2 mutated mouse model.
Protocol: Fragments of Capan-1 human pancreatic cancer tumors were implanted subcutaneously. Mice bearing a palpable tumor (100-200 mm^3) were selected and randomized into control and treated groups. Each group included seven animals. The treatment started one day after randomization. Compound of formula (I) was administered by oral route as a methocel suspension at the indicated doses and times. Tumor dimension was measured regularly by calipers during the experiments and tumor mass was calculated as described in Simeoni M. et al., Cancer Res 64, 1094-1101 (2004).
In data set [7] the test system is ovarian cancer with confirmed BRCA-1 mutations. The conditions noted are these: ovarian cancer patients with confirmed BRCA-1 mutations, monotherapy; cited from earlier work.
Where [8] appears, read: compound P3 as the probe, 100 nM PARP-1.
[9] abbreviates: half maximal displacement concentration; read-out: PARP-2 DC50.
Where [10] appears, read: read-out: PARP-2 DC50; half maximal displacement concentration.
[11] abbreviates: 100 mg/kg oral, days 1-14 daily.
The mark [12] stands for this setting: 100 mg/kg oral, days 1-15 daily.
Where [13] appears, read: 100 mg/kg oral, days 1-6 twice a day.
Setting [14] is: compound P1 as the probe, 250 nM PARP-1.

PARP-2 FL, sequence (Q9UGN5 whole entry): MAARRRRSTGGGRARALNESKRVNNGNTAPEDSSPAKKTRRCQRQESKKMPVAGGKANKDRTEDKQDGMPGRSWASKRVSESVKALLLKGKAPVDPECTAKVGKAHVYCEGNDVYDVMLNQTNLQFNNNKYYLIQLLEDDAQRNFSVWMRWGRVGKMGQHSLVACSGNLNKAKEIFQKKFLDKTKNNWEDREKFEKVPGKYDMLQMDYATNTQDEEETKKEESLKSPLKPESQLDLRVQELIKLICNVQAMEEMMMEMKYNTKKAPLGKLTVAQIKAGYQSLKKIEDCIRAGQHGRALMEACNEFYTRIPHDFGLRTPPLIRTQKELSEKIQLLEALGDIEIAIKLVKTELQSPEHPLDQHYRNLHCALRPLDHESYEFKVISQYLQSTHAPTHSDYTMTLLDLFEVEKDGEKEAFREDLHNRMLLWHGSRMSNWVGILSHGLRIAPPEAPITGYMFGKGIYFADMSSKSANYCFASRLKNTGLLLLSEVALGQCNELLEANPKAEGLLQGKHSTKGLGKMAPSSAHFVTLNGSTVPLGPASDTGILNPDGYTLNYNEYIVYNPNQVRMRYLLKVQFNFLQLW
PARP-1 FL, sequence (P09874 whole entry): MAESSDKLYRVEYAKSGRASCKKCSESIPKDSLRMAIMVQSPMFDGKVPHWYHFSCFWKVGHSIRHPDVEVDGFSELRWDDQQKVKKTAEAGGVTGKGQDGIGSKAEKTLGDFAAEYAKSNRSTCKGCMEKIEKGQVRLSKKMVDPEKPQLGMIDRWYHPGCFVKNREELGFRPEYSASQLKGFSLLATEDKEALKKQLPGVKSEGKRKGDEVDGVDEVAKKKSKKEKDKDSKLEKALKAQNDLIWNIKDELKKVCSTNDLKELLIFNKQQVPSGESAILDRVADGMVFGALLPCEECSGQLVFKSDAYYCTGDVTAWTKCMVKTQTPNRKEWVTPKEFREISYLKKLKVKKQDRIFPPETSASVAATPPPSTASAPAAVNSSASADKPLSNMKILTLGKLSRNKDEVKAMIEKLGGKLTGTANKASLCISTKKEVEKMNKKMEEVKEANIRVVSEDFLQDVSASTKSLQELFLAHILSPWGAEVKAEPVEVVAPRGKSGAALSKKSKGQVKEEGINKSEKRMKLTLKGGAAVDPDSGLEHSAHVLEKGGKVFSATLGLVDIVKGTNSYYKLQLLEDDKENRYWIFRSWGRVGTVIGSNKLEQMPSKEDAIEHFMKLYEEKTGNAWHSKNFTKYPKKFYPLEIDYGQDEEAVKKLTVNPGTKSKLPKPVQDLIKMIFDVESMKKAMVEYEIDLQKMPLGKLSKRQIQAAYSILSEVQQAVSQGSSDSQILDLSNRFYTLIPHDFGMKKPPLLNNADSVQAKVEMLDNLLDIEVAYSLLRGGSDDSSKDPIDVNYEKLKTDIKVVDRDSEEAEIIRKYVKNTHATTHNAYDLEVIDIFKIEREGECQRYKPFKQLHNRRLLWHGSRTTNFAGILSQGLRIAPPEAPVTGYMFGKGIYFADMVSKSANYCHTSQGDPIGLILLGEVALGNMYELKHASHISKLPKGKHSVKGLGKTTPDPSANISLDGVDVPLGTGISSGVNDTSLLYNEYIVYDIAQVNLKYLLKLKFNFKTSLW
PARP-3 FL, sequence (Q9Y6F1 whole entry): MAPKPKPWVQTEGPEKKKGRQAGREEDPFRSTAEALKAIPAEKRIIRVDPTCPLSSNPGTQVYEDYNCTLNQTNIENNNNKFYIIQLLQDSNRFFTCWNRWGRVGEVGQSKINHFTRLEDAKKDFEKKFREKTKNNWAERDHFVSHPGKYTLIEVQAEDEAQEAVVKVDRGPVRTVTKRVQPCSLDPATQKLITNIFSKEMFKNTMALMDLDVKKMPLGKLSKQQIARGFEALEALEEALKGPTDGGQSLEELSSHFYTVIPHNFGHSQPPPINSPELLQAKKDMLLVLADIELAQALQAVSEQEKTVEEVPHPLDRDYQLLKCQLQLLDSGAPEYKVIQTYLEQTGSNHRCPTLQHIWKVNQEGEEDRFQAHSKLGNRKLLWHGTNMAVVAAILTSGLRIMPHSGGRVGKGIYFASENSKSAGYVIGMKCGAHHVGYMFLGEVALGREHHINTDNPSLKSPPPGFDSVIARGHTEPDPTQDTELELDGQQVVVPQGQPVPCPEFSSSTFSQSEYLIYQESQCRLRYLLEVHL

What is called Kd is the constant that tells how readily two partners part at equilibrium. Lower therefore signals a tighter complex. As a reminder, the AUC is concentration integrated over time. A word on the half-life: it is the time needed for the level to fall by half in the phase considered. Read a low half-life as fast loss. Broadly, the IC50 is the midpoint of a concentration-inhibition curve. In turn, `NC(=O)c1cccc2c1C(=O)N(C1CCN([C@H]3CC[C@@H](CO)CC3)CC1)C2` [Compound 3, 2-{1-[Cis-4-(hydroxymethyl)cyclohexyl]piperidin-4-yl}-3-oxo-2,3-dihydro-1H-isoindole-4-carboxamide] came in with a Kd in data set [1] (setting [8]) of 13 nM. The molecule also gave a DC50 in data set [1] of under 250 nM. For the same molecule, the DC50 in data set [2] (setting [9]) is over 10 µM. Besides, in data set [3], the DC50 amounted to 2.3 µM. Also, in data set [4], the “C-max (oral)” value is 1.17 µM, the “F on AUC” value came to 82.5%, the Vd was found to be 4.75 L/kg and the clearance stood at 104 mL/min/kg. In addition, in data set [4], the area under the curve (AUC) stood at 2.39 µM·h and the half-life is 105 min. Further, in data set [5], the IC50 was 140 nM.

Consider `CO[C@H]1CC[C@H](N2CCC(N3Cc4cccc(C(N)=O)c4C3=O)CC2)CC1` [Compound 2, 2-[1-(Trans-4-methoxycyclohexyl)piperidin-4-yl]-3-oxo-2,3-dihydro-1H-isoindole-4-carboxamide], for which the Kd in data set [1] (setting [8]) is 25 nM. Besides, the DC50 in data set [1] was under 250 nM; in data set [2] (setting [10]), over 10 µM; in data set [3] it was 6 µM. Besides, the IC50 in data set [5] came to 160 nM.

As for `NC(=O)c1cc(F)cc2c1C(=O)N(C1CCN(C3CCC(Cl)(Cl)CC3)CC1)C2` [Compound 105, 2-[1-(4,4-Dichlorocyclohexyl)piperidin-4-yl]-6-fluoro-3-oxo-2,3-dihydro-1H-isoindole-4-carboxamide], the results for the DC50 in data set [2] (setting [10]) and in data set [3] were over 10 µM and 1.08 µM, respectively.

In the case of `NC(=O)c1cccc2c1C(=O)N(C1CCN(Cc3ccc4[nH]ccc4c3)CC1)C2` [Compound 29, 2-[1-(1H-indol-5-ylmethyl)piperidin-4-yl]-3-oxo-2,3-dihydro-1H-isoindole-4-carboxamide], in data set [6] (setting [11]), the “Max TGI (%)” value was 38% and the “Toxicity (body weight reduction, mice out of 7)” value is recorded as 0/7.

The molecule `NC(=O)c1cc(F)cc2c1C(=O)N(C1CCN(C3CCC(F)(F)CC3)CC1)C2` [Compound 99, 2-[1-(4,4-Difluorocyclohexyl)-piperidin-4-yl]-6-fluoro-3-oxo-2,3-dihydro-1H-isoindole-4-carboxamide] returned a DC50 in data set [3] of 1.58 µM. Further, in data set [6] (setting [12]), the “Max TGI (%)” value came out at 55% and the “Toxicity (body weight reduction, mice out of 7)” value is recorded as 0/7. The AUC in data set [4] worked out at 19.6 µM·h.

The molecule `CC(C)n1cc(CN2CCC(N3Cc4cccc(C(N)=O)c4C3=O)CC2)c2ccccc21` [Compound 32, 3-oxo-2-(1-{[1-(propan-2-yl)-1H-indol-3-yl]methyl}piperidin-4-yl)-2,3-dihydro-1H-isoindole-4-carboxamide] yielded a Kd in data set [1] (setting [8]) of 40 nM. The same molecule registered a DC50 in data set [1] of under 250 nM. The DC50 in data set [2] (setting [9]) was over 10 µM. Besides, the DC50 in data set [3] is 0.27 µM. Moreover, in data set [6] (setting [13]), the “Max TGI (%)” value stood at 32% and the “Toxicity (body weight reduction, mice out of 7)” value is recorded as 0/7. Further, in data set [4], the “C-max (oral)” value turned out to be 0.43 µM, the “F on AUC” value is listed as 24%, the Vd is 2.78 L/kg and the clearance came out at 59.5 mL/min/kg. In data set [4], this molecule had an AUC of 1.48 µM·h and a half-life of 110 min. Moreover, in data set [5], the IC50 was 380 nM.

`COCCN1CCC(N2Cc3cccc(C(N)=O)c3C2=O)CC1` [Compound 106, 2-[1-(2-Methoxyethyl)piperidin-4-yl]-3-oxo-2,3-dihydro-1H-isoindole-4-carboxamide] had a Kd in data set [1] (setting [14]) of 110 nM. Besides, the DC50 in data set [1] is 280 nM; in data set [2] (setting [10]), over 10 µM; in data set [3] it was 2.55 µM. Moreover, in data set [5], the IC50 was 410 nM.

With `NC(=O)c1cccc2c1C(=O)N(C1CCN([C@H]3CC[C@H](CO)CC3)CC1)C2` [Compound 4, 2-{1-[Trans-4-(hydroxymethyl)cyclohexyl]piperidin-4-yl}-3-oxo-2,3-dihydro-1H-isoindole-4-carboxamide], the Kd in data set [1] (setting [8]) is 20 nM. This molecule also displayed a DC50 in data set [1] of under 250 nM. Besides, the DC50 in data set [2] (setting [9]) is over 10 µM. In data set [3], this molecule had a DC50 of 4.9 µM. Also, in data set [4], the “C-max (oral)” value stood at 0.4 µM, the “F on AUC” value is on record as 55%, the Vd worked out at 5.95 L/kg and the clearance was found to be 135 mL/min/kg. In data set [4], this molecule had an AUC of 1.3 µM·h and a half-life of 85.2 min. Further, the IC50 in data set [5] came to 90 nM.

For the molecule `O=C(c1cc(Cc2n[nH]c(=O)c3ccccc23)ccc1F)N1CCN(C(=O)C2CC2)CC1` [AZD2281], in data set [7], the partial responses is 4 out of 10.

`NC(=O)c1cccc2c1C(=O)N(C1CCN(C3CCC4(CC3)OCCO4)CC1)C2` [Compound 8, 2-[1-(1,4-Dioxaspiro[4.5]dec-8-yl)piperidin-4-yl]-3-oxo-2,3-dihydro-1H-isoindole-4-carboxamide] yielded a Kd in data set [1] (setting [14]) of 130 nM. In addition, the DC50 in data set [1] was 280 nM; in data set [2] (setting [10]), over 10 µM; in data set [3], over 10 µM. For the same molecule, the IC50 in data set [5] is 530 nM.

Consider `NC(=O)c1cc(F)cc2c1C(=O)N(C1CCN(C3CCC(=O)CC3)CC1)C2` [Compound 103, 6-Fluoro-3-oxo-2-[1-(4-oxocyclohexyl)piperidin-4-yl]-2,3-dihydro-1H-isoindole-4-carboxamide], for which the Kd in data set [1] (setting [8]) is under 10 nM. The DC50 in data set [1] was under 250 nM; in data set [2] (setting [10]), 3.77 µM; in data set [3], 4.67 µM. Further, the IC50 in data set [5] was 80 nM.

Consider `CC(C)Oc1ccc(CN2CCC(N3Cc4cccc(C(N)=O)c4C3=O)CC2)cc1` [Compound 44, 3-oxo-2-{1-[4-(propan-2-yloxy)benzyl]piperidin-4-yl}-2,3-dihydro-1H-isoindole-4-carboxamide], for which the DC50 is under 250 nM in data set [1] and over 10 µM in data set [2] (setting [10]). Also, in data set [5], the IC50 came to 500 nM.

In data set [1] (setting [14]), `NC(=O)c1cccc2c1C(=O)N(C1CCN(Cc3cccc(Cl)c3)CC1)C2` [Compound 42, 2-[1-(3-Chlorobenzyl)piperidin-4-yl]-3-oxo-2,3-dihydro-1H-isoindole-4-carboxamide] came in with a Kd of 33 nM. For the same molecule, the DC50 is under 250 nM in data set [1] and 4.15 µM in data set [2] (setting [10]). Moreover, the IC50 in data set [5] stood at 5310 nM.

As for `NC(=O)c1cccc2c1C(=O)N(CC1CCN(Cc3ccc(F)cc3)CC1)C2` [Compound 51, 2-{[1-(4-Fluorobenzyl)piperidin-4-yl]methyl}-3-oxo-2,3-dihydro-1H-isoindole-4-carboxamide], the Kd in data set [1] (setting [14]) is under 30 nM. The figures for the DC50 in data set [1] and in data set [2] (setting [10]) were under 250 nM and 5.68 µM, respectively. Besides, the half-maximal inhibitory concentration (IC50) in data set [5] was determined as 160 nM.

Take `NC(=O)c1cccc2c1C(=O)N(C1CCN(C3CCC(F)(F)CC3)CC1)C2` [Compound 7, 2-[1-(4,4-Difluorocyclohexyl)-piperidin-4-yl]-3-oxo-2,3-dihydro-1H-isoindole-4-carboxylic acid amide]: in data set [3], the DC50 was 3.54 µM. Besides, in data set [6] (80 mg/kg oral, days 1-8 daily), the “Max TGI (%)” value came to 47% and the “Toxicity (body weight reduction, mice out of 7)” value is reported as 0/7.

`CO[C@H]1CC[C@@H](N2CCC(N3Cc4cccc(C(N)=O)c4C3=O)CC2)CC1` [Compound 1, 2-[1-(Cis-4-methoxycyclohexyl)piperidin-4-yl]-3-oxo-2,3-dihydro-1H-isoindole-4-carboxamide]: the Kd in data set [1] (setting [8]) turned out to be 60 nM. Moreover, the DC50 in data set [1] is under 250 nM; in data set [2] (setting [10]), over 10 µM; in data set [3], 3.7 µM. Also, in data set [5], the IC50 is 390 nM.

Turning to `Cc1ccsc1CN1CCC(N2Cc3cccc(C(N)=O)c3C2=O)CC1` [Compound 36, 2-{1-[(3-Methylthiophen-2-yl)methyl]piperidin-4-yl}-3-oxo-2,3-dihydro-1H-isoindole-4-carboxamide], the Kd in data set [1] (setting [14]) is under 30 nM. Also, the DC50 in data set [1] is under 250 nM; in data set [2] (setting [10]) it was 9.4 µM. Further, the IC50 in data set [5] was 230 nM.

In the case of `NC(=O)c1ccc(F)c2c1C(=O)N(C1CCN(C3CCC(F)(F)CC3)CC1)C2` [Compound 101, 2-[1-(4,4-Difluorocyclohexyl)-piperidin-4-yl]-7-fluoro-3-oxo-2,3-dihydro-1H-isoindole-4-carboxamide], the DC50 in data set [2] (setting [10]) and in data set [3] was over 10 µM in each case.

Regarding `COc1cccc(CN2CCC(N3Cc4cccc(C(N)=O)c4C3=O)CC2)c1` [Compound 35, 2-[1-(3-Methoxybenzyl)piperidin-4-yl]-3-oxo-2,3-dihydro-1H-isoindole-4-carboxamide], the Kd in data set [1] (setting [14]) is under 30 nM. Moreover, the DC50 is under 250 nM in data set [1] and over 10 µM in data set [2] (setting [10]). The IC50 in data set [5] came to 300 nM.

In turn, `Cc1ccc(CN2CCC(N3Cc4cccc(C(N)=O)c4C3=O)CC2)cc1C` [Compound 18, 2-[1-(3,4-Dimethylbenzyl)piperidin-4-yl]-3-oxo-2,3-dihydro-1H-isoindole-4-carboxamide] registered a Kd in data set [1] (setting [14]) of under 30 nM. Also, the DC50 in data set [1] is under 250 nM; in data set [2] (setting [10]) it was over 10 µM. Further, the concentration for half-maximal inhibition (IC50) in data set [5] worked out at 7100 nM.

Take `Cc1c(CN2CCC(N3Cc4cccc(C(N)=O)c4C3=O)CC2)cnn1C` [Compound 34, 2-{1-[(1,5-Dimethyl-1H-pyrazol-4-yl)methyl]piperidin-4-yl}-3-oxo-2,3-dihydro-1H-isoindole-4-carboxamide]: the Kd in data set [1] (setting [14]) worked out at 130 nM. The DC50 in data set [1] was 340 nM; in data set [2] (setting [10]) it was over 10 µM. Further, in data set [5], the 50% inhibitory concentration (IC50) came out at 900 nM.

In the case of `NC(=O)c1cc(Cl)cc2c1C(=O)N(C1CCN(C3CCC(F)(F)CC3)CC1)C2` [Compound 100, 2-[1-(4,4-Difluorocyclohexyl)-piperidin-4-yl]-6-chloro-3-oxo-2,3-dihydro-1H-isoindole-4-carboxamide], the results for the DC50 in data set [2] (setting [10]) and in data set [3] were over 10 µM and 0.79 µM, respectively.
